Measurements taken from PubChem BioAssay AID2305 (GlaxoSmithKline (GSK), 2010).
“And” between values parts separate entries of the source, which are not always exact repeats. Identical values can stand only once.

Tested on: P. falciparum 3D7 growth, pLDH absorbance
Experiment: blood-stage malaria parasite growth potency – strain 3D7, dose response (AID 2305)

| SMILES | IC50 |
| --- | --- |
| NC(=O)c1ccc2[nH]cc(C3CCN(CC4CCC(NC(=O)/C=C/c5ccc(Cl)c(Cl)c5)CC4)CC3)c2c1 (stereo not given) | 870 nM and 760 nM |
| O=C(Nc1ccc(F)cc1)NC1CCN(c2ccnc3cc(Cl)ccc23)C1 (stereo not given) | 220 nM |
| O=C(Nc1cccc(Cl)c1)N(CCCn1ccnc1)Cc1csc(-c2ccc(CNCc3ccccc3)cc2)n1 | 540 nM |
| Cc1nc(C)c(CC(=O)Nc2ccc(-c3cccc(-c4nc5c(C)cccc5[nH]4)c3)cc2)s1 | 600 nM |
| COc1ccc(S(=O)(=O)N(CC(=O)NN=C(C)c2cccs2)c2cc(C)cc(C)c2)cc1OC | 140 nM |
| Oc1cccc2ccc(Nc3ccccn3)nc12 | 750 nM |
| Cn1cncc1-c1ccc2ncnc(Nc3ccc(OCc4ccccc4)cc3)c2c1 | 1340 nM |
| CCc1cn2c3c(cc(C(=O)N[C@@H](Cc4ccccc4)[C@H](O)CNCc4cccc(C)c4)cc13)N(C)S(=O)(=O)CC2 | 250 nM |
| C#CCNCc1ccc(-c2cccc(-c3nc4c(C)cccc4[nH]3)c2)cc1 | 820 nM |
| O=C(NC1CCC(N2CCC(Cc3ccc(F)cc3)CC2)CC1)c1cc2ccccc2[nH]1 (stereo not given) | 870 nM |
| NS(=O)(=O)c1cccc(-c2ccc3nccc(-c4cccc(S(N)(=O)=O)c4)c3c2)c1 | 1270 nM |
| OCCN1CCN(Cc2ccc(-c3cccc(-c4nc5ccccc5[nH]4)c3)cc2)CC1 | 750 nM |
| Clc1ccc(CCNCCCCCCNCCc2ccc3c(c2)OCO3)cc1 | 1730 nM |
| Cc1ccccc1Nc1nc(NCCc2ccccc2)nc2ccccc12 | 1260 nM |
| O=C(NCCCc1ccccc1)c1csc(C2CCCN(C(=O)c3ccc(O)c(-c4ccccc4)c3)C2)n1 (stereo not given) | 910 nM |
| CCN1CCN(CCCNc2ccnc3cc(Cl)ccc23)CC1 | 70 nM |
| NC(=O)c1cnc2cc(-c3ccncc3)cc(Nc3ccc(NC(=O)C4CCCCC4)cc3)c2c1 | 230 nM |
| COc1ccc2nccc([C@@H](O)CN3CCC(NCCOc4ccc(F)cc4Cl)CC3)c2c1 | 280 nM |
| CN1CCC(Oc2ccc(CN3CC[C@H](NC(=O)c4cccc(C#N)c4)C3)c3ccccc23)C1 (stereo not given in full) | 800 nM |
| COc1ccc(NS(=O)(=O)c2ccc(C(=O)Nc3ccc(OC(F)(F)F)cc3)cc2)cc1N1CCN(CC2CC2)CC1 | 1000 nM |
| CCN(CC)C(=NCCCCCCCCN=C(/N=C(/N)Nc1ccc(Cl)cc1)N(CC)CC)/N=C(/N)Nc1ccc(Cl)cc1 | 400 nM |
| O=C(Nc1cc(C(F)(F)F)cc(C(F)(F)F)c1)NC1CCC(CN2CCC(c3c[nH]c4ccccc34)CC2)CC1 (stereo not given) | 810 nM and 460 nM |
| O=C(N[C@@H](Cc1ccccc1)C(=O)NCCN1CCCC1)c1ccc(O)c(-c2ccc(Cl)c(Cl)c2)c1 | 800 nM |
| COc1ccc(CCn2c(=N)c(C(=O)NCc3cccnc3)cc3c(=O)n4cccc(C)c4nc32)cc1 | 1400 nM |

| SMILES | IC50 |
| --- | --- |
| CN(C)c1ccc(-c2csc(C(=O)NC3CCN(CCC(C)(C)C)C3)c2)cc1 (stereo not given) | 970 nM |
| O=C(Nc1ccccc1)c1nn(CCCN2CCC(N3CCCC3)CC2)cc1-c1ccc(Cl)c(Cl)c1 | 240 nM |
| Cc1ccccc1NC(=S)NC1CCN(CCCCCNC(=O)/C=C/c2ccc(Cl)c(Cl)c2)CC1 | 790 nM |
| NC(=O)c1sc(-n2cnc3ccccc32)cc1OCc1ccccc1[N+](=O)[O-] | 700 nM |
| CCCCOc1cc(OC)c2ccccc2c1CCNCCCCNCCc1c(OCCCC)cc(OC)c2ccccc12 | 1050 nM |
| O=S(=O)(Nc1cc2c(cc1O)CCNCC2)c1ccc(-c2ccc(Cl)cc2)cc1 | 980 nM |
| CCOc1ccc(C(C)NC(=O)c2ccc(OC)c(Br)c2)cc1OCC (stereo not given) | 710 nM |
| Nc1ccnc(N2CCC(CCOc3ccnc4cc(Cl)ccc34)CC2)c1 | 1160 nM |
| CCOc1ccc(-c2cc3nc(C4CCNCC4)c(C(=O)Nc4ccc(C)cc4Cl)cn3n2)cc1 | 920 nM |
| Clc1ccc(Cn2nc(Br)nc2Br)c(Cl)c1 | 440 nM |
| CNc1ccc(CNCc2cccc(-c3ccc(-c4nc5c(C)cccc5[nH]4)s3)c2)cc1 | 990 nM |
| O=S(=O)(c1c(Cl)cccc1Cl)N1CCCCC(c2ccc(C(F)(F)F)cc2)=N1 | 130 nM |
| CCC(Cc1cnc2nc(N)nc(N)c2n1)c1ccc(C(=O)O)cc1 (stereo not given) | 250 nM |
| Cc1nnsc1C(=O)Nc1ccc(-c2cccc(-c3nc4ccc(C(F)(F)F)cc4[nH]3)c2)cc1 | 840 nM |
| COc1cc2nc(NCCn3nc(C)cc3C)nc(NCCc3ccccc3)c2cc1OC | 440 nM |
| O=C(NCCCc1ccccc1)c1csc(C2CCCN(C(=O)c3ccc(O)c(-c4cccc5ccccc45)c3)C2)n1 (stereo not given) | 970 nM |
| Cc1ccc(CC(C)NCC(O)c2cccc(Cl)c2)cc1F (stereo not given) | 740 nM |
| COc1cc(Cc2cnc(N)nc2N)cc(OCC(C)(C)C(=O)O)c1OC | 1110 nM |
| O=c1cc(NCCC(CNCc2ccc(Br)o2)NCc2cc(Br)cc(Br)c2)[nH]c2ccccc12 (stereo not given) | 860 nM |
| O=C(CCN(Cc1ccco1)c1nc(-c2ccc(F)cc2)nc2ccccc12)NC1CC1 | 1580 nM |
| CC1(C)CCCN(C(=O)Cc2ccc3c(c2)CCCC3)C1CN1CC=CC1 (stereo not given) | 720 nM |
| CCCC(C)NC(=O)[C@H]1CNCCN1C(=O)CCCc1ccccc1 (stereo not given in full) | 190 nM |
| CC1(C)N=C(N)N=C(N)N1OCc1cc2ccccc2cc1CON1C(N)=NC(N)=NC1(C)C | 130 nM |
| CC(C)(C)C(=O)Nc1ccc(C(=O)Nc2cccc(-c3nc4ccccc4[nH]3)c2)cc1 | 280 nM |

| SMILES | IC50 |
| --- | --- |
| COc1ccc2nccc(N(C)CC3(O)CCN(CCc4ccc5c(c4)NC(=O)CS5)CC3)c2n1 | 140 nM |
| O=C(NCCNc1ccnc(NCc2ccc(F)cc2)n1)c1cc2ccccc2s1 | 700 nM |
| CCOc1cc(C(=O)NC2CCN(Cc3ccccc3)CC2)ccc1-c1nc2cc(Cl)c(Cl)cc2[nH]1 | 470 nM |
| CN(C)CCCOc1ccc(CN2CC[C@H](NC(=O)c3ccc(Cl)c(Cl)c3)C2)cc1Br | 760 nM |
| Cc1ccccc1NC1=NC(=S)N(c2cccc(C(F)(F)F)c2)C12CCC(C(C)(C)C)CC2 (stereo not given) | 970 nM |
| CC(C)COc1ccc(Cl)cc1Cc1ccc(-c2nc3c(F)cccc3[nH]2)o1 | 810 nM |
| Cc1c(S(=O)(=O)Nc2cccc(CCN3CCCCC3CCN3CCCC3)c2)sc2ccc(Cl)cc12 (stereo not given) | 930 nM |
| COc1c(C2CCN(CCCCNC(=O)c3ccc(-c4ccc(C#N)cc4)cc3)CC2)cc(Cl)c2c1CCCC2 | 780 nM |
| CN1CCN(CCCN(Cc2csc(-c3ccc(CNCc4ccccc4)cc3)n2)C(=O)Nc2cccc(Cl)c2)CC1 | 790 nM |
| N#Cc1ccc(N(CCNS(=O)(=O)c2cc(Br)c(Cl)s2)Cc2ccccc2C(F)(F)F)cc1C(F)(F)F | 860 nM |
| CCCCN(CCCC)Cc1cc2ccccc2cc1O | 350 nM |
| Cc1nnc(N2C(=N)SC(=Cc3ccc(-c4ccc(OC(F)(F)F)cc4)o3)C2=O)s1 | 530 nM |
| NC1CCCN(Cc2cccc(-c3cccc(-c4nc5ccccc5[nH]4)c3)c2)C1 (stereo not given) | 640 nM |
| Cc1nc(-c2cccc(Nc3nccc(NCC(O)c4cccc(C(F)(F)F)c4)n3)c2)cs1 (stereo not given) | 630 nM |
| N#Cc1cc([N+](=O)[O-])ccc1-n1nc(-c2cccc(Cl)c2)n(CC2CCCO2)c1=S (stereo not given) | 910 nM |
| Cc1cc(NC(=O)c2ccsc2)ccc1OC1CCN(Cc2ccc(F)cc2)CC1 | 1220 nM |
| O=C(NC1CCN(Cc2ccccc2)CC1)c1ccc(-c2nc3cc(F)c(F)cc3[nH]2)s1 | 830 nM |
| CCCCCCCCCCNCC(O)c1ccc(O)c(C(=O)OC)c1 (stereo not given) | 720 nM |
| CCc1cc(-c2onc(C)c2-c2cc3ccccc3o2)c(O)cc1OC | 970 nM |
| CC(Cc1ccc(OCCOc2ccccc2)cc1)NCC(O)c1cccc(C(F)(F)F)c1 (stereo not given) | 970 nM |
| Cc1ccc2[nH]c(-c3ccc(C(=O)NC4CCN(Cc5ccccc5)CC4)cc3)nc2c1C | 730 nM |
| Cc1ccc(NC(C)C(=O)Nc2ccc(C#N)cc2)cc1S(=O)(=O)N1CCCCC1 (stereo not given) | 540 nM |
